How the values were obtained:
Assay in all cases: area under concentration-response curve (viability) (AUC (a.u.)); higher = less active
Conditions in all cases: 48 h
CU-ACC2 = tested on: CU-ACC2
Summary of the method: (§1)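 In 1,536-well plates, 500–1,000 cells/well of three adrenocortical carcinoma cell lines in 5 µL medium received 23 nL of each library compound across 11 concentrations. At 48 h, CellTiter-Glo was incubated for 15 minutes at room temperature and luminescence measured. Per-plate normalisation used vehicle and empty-well controls, and only inhibitory or non-responding curve classes were kept when fitting concentration-response curves for AC50 and area under the curve.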

CU-ACC1 = tested on: CU-ACC1
Summary of the method: as §1

NCI-H295R = tested on: NCI-H295R
Summary of the method: as §1

| Structure (SMILES) | area under concentration-response curve (CU-ACC2) | area under concentration-response curve (CU-ACC1) | area under concentration-response curve (NCI-H295R) |
| --- | --- | --- | --- |
| CCN1\C(=C(C(=O)NC)/C(=O)C2=C1N=C(C=C2)C#CC(C)(O)COC)N (configuration not stated) | 579 | 482 | 510 |
| COc1ccc(CC2c3cc(OC)c(OC)cc3CC[N+]2(C)CCC(=O)OCCCCCOC(=O)CC[N+]2(C)CCc3cc(OC)c(OC)cc3C2Cc2ccc(OC)c(OC)c2)cc1OC (configuration not stated) | 494 | 449 | 474 |
| CCCOc1ccn2c(C(C)=O)cc(-c3ccccc3[S+](C)(=O)[O-])c2c1 | 445 | 485 | 527 |
| ClC1=C(N\C2=N\CCN2)C3=NSN=C3C=C1 | 609 | 412 | 541 |
| [2H]c1nc(C)nc([2H])c1-c1cc(NC[C@@H](C)c2cccc3c(C(=O)NC)ccnc23)ncn1 | 629 | 531 | 585 |
| Oc1cc(O)cc(/C=C/c2ccc(O)c(O)c2)c1 | 511 | 519 | 525 |
| N=C1S/C(=C\c2ccc(-c3ccc4c(c3)C(=O)NC4=O)o2)C(=O)N1c1ccc(Br)cc1 | 675 | 563 | 618 |
| CCOC(=O)Nc1ccc(NCc2ccc(F)cc2)nc1N | 439 | 446 | 504 |
| COCCOc1ccc(N2CCN(CCn3ncc4c3nc(N)n3nc(-c5ccco5)nc43)CC2)cc1 | 606 | 552 | 530 |
| OC(=O)C1=CC=C(NC2=NC3=C(C\N=C(/C4=CC(=CC=C34)Cl)C5=C(F)C=CC=C5F)C=N2)C=C1 | 559 | 504 | 517 |
| Cc1ccc(NC(=O)Nc2nnc(Sc3ncnc4cc(OCCCN5CCOCC5)ccc34)s2)cc1 | 583 | 521 | 511 |
| O=[N+]([O-])c1cnc(Sc2nnc(O)n2-c2ccc3c(c2)OCCO3)s1 | 611 | 529 | 517 |
| C[S+](=O)([O-])Oc1ccc2c(NC(N)=O)c(C(=O)c3ccc(Cl)cc3Cl)oc2c1 | 568 | 515 | 532 |
| Cn1cc(-c2nc(N[C@@H]3CCCC[C@@H]3N)c(F)c3c2C(=O)NC3)cn1 | 719 | 623 | 660 |
| CCCn1c(=O)c2[nH]c(-c3cnn(Cc4cccc(C(F)(F)F)c4)c3)nc2n(CC)c1=O | 633 | 509 | 584 |
| CN(N=O)C(=O)N[C@@H]1[C@@H](O)[C@H](O)[C@@H](CO)O[C@@H]1O | 590 | 502 | 548 |
| Oc1ccc(C2CCN(c3ccnc4ccccc34)CC2)cc1O | 549 | 497 | 523 |
| CCCC1=N[N](C)C2=C1\N=C(/NC2=O)C3=CC(=CC=C3OCC)[S+]([O-])(=O)N4CCN(C)CC4 | 610 | 561 | 539 |
| N=C(N)NN.N=C(N)NN.O=S(=O)(O)O | 559 | 503 | 524 |

— the supplement of paper PMC10949913
